One assay has as its system vasopressin V1. Briefly: Vasopressin V1 Antagonist Activity in Conscious Rats (vasopressin vasopressor response). It counts as in vivo, rat (spontaneously hypertensive rats). Put shortly:
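Conscious rats had the ventral caudal tail artery cannulated into the lower abdominal aorta under local procaine anesthesia, plus a caudal vein cannula for intravenous dosing. Pulsatile blood pressure was recorded via a Statham P23Db transducer. Vasopressor responses to vasopressin injections were measured before and after compound dosing, with percent antagonism calculated relative to the pre-drug response taken as 100%.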

The next assay concerns vasopressin V2. Briefly: Vasopressin V2 Antagonist Activity in Conscious Hydrated Rats (diuretic effect). It counts as in vivo, normal Sprague-Dawley rats. Conditions: 10 mg/kg orally, AVP 0.4 μg/kg i.p. In short, it runs like this:
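Conscious rats were dosed orally at 0.1–100 mg/kg, and AVP 0.4 μg/kg i.p. in peanut oil followed 1 h later. Urine volume, osmolality and Na/K/Cl were compared against AVP-treated controls, with non-AVP rats as water-loading controls.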

In assay [1] the target is T1, oxytocin receptors (rat uterus membranes) (Rattus norvegicus, UniProt P70536).
T1 construct: The resulting pellet containing the oxytocin receptors is resuspended; from tissue; host or cells: uterus membranes of DES-treated female Sprague-Dawley rats
T1 sequence (P70536 1-388): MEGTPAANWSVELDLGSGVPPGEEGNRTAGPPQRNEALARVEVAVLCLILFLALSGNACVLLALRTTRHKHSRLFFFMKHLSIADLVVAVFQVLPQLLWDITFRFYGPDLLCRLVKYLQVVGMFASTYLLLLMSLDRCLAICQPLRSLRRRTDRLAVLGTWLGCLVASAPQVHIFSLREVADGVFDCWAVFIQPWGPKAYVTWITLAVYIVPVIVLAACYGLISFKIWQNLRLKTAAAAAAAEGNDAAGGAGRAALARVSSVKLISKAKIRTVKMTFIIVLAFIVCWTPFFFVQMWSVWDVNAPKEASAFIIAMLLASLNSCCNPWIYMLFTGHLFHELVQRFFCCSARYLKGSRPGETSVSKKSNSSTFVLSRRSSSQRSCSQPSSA
The experiment in a line: Oxytocin Receptor Binding. On the set-up: species or system female Sprague-Dawley rats. The protocol:
Female Sprague-Dawley rats weighing approximately 200-250 g are injected intramuscularly (i.m.) with 0.3 mg/kg of body weight of diethylstilbestrol (DES). The rats are sacrificed 18 hours later under pentobarbital anesthesia. The uteri are dissected out, cleaned of fat and connective tissues and rinsed in 50 ml of normal saline. The tissue pooled from six rats is homogenized in 50 ml of […] Tris.HCl, containing 0.5 mM dithiothreitol and 1.0 mM EDTA, adjusted to pH 7.4, using a polytron at setting 6 with three passes of 10 sec each. The homogenate is passed through two (2) layers of cheesecloth and the filtrate centrifuged at 1000×g for 10 min. The clear supernatant is removed and recentrifuged at 165,000×g for 30 min. The resulting pellet containing the oxytocin receptors is resuspended in 50.0 mM Tris.HCl containing 5.0 mM MgCl2 at pH 7.4, to give a protein concentration of 2.5 mg/ml of tissue suspension. This preparation is used in subsequent binding assays with [^3 H]Oxytocin.
Binding of 3,5-[^3 H]Oxytocin ([^3 H]OT) to its receptors is done in microtiter plates using [^3 H]OT, at various concentrations, in an assay buffer of 50.0 mM Tris.HCl, pH 7.4 and containing 5.0 mM MgCl2, and a mixture of protease inhibitors: BSA, 0.1 mg; aprotinin, 1.0 mg; 1,10-phenanthroline, 2.0 mg; […], 10.0 mg; and PMSF, 0.3 mg per 100 ml of buffer solution. Non-specific binding is determined in the presence of 1.0 uM unlabeled OT. The binding reaction is terminated after 60 min., at 22° C., by rapid filtration through glass fiber filters using a Brandel® cell harvester (Biomedical Research and Development Laboratories, Inc., Gaithersburg, Md.). Competition experiments are conducted at equilibrium using 1.0 nM [^3 H]OT and varying the concentration of the displacing agents. The concentrations of agent displacing 50% of [^3 H]OT at its sites (IC50) are calculated by a computer assisted LUNDON-2 program (LUNDON SOFTWARE INC., Ohio, USA).

The term inhibition denotes the relative decrease from the control value, in per cent. High values mean a response far below the control, low ones a response near the control. In the case of `O=C(Nc1ccc(C(=O)N2Cc3ccccc3Cc3ccccc32)cc1)c1cc(Cl)cc(Cl)c1` [Example 251, N-(4-[(6,11-Dihydro-5H-dibenz[b,e]azepin-5-yl)-carbonyl]phenyl]-3,5-dichlorobenzamide], in the assay with vasopressin V1 (30 mg/kg i.v.), the “MAX % Inhibition” value stood at 41% and the “Time of max % inhibition” value is 60 min. Moreover, in the assay on vasopressin V2, the Osmolality came to 835 mOsm/kg and the “Urine Volume” value is on record as 7.5 ml/4 hrs. Further, the inhibition at 10 µM in assay [1] is 77%.
Consider `Cc1ncc2c(n1)-c1ccccc1N(C(=O)c1ccc(NC(=O)c3ccccc3C)cc1)CC2` [Example 416, N-[4-[(6,7-Dihydro-2-methyl-5H-pyrimido[5,4-d][1]-benzazepin-7-yl)carbonyl]phenyl]-2-methylbenzamide], for which, in the assay on vasopressin V1 (30 mg/kg i.v.), the “MAX % Inhibition” value was 44% and the “Time of max % inhibition” value stood at 90 min. In addition, in the assay with vasopressin V2, the Osmolality is given as 1156 mOsm/kg and the “Urine Volume” value amounted to 4.3 ml/4 hrs. In addition, at 10 µM the inhibition in assay [1] was 19%.
By IC50 is commonly meant the concentration that inhibits the measured activity by half. Turning to `COc1cc(C(=O)N2Cc3ccccc3Cc3ccccc32)ccc1NC(=O)c1cc(F)ccc1C` [Example 261, N-[4-[(6,11-Dihydro-5H-dibenz[b,e]azepin-5-yl)-carbonyl]-2-methoxyphenyl]-2-methyl-5-fluorobenzamide], in the assay with vasopressin V1 (10 mg/kg i.v.), the “MAX % Inhibition” value turned out to be 74% and the “Time of max % inhibition” value was found to be 60 min. Further, in the assay with vasopressin V2, the Osmolality is reported as 1337 mOsm/kg and the “Urine Volume” value is 3.8 ml/4 hrs. The molecule further had an inhibition at 10 µM in assay [1] of 97%. The molecule also showed an IC50 in assay [1] (first part of Table V) of 210 nM.
`COc1cc(C(=O)N2Cc3ccccc3Cc3ccccc32)ccc1NC(=O)c1ccc(Cl)cc1Cl` [Example 263, N-[4-[(6,11-Dihydro-5H-dibenz[b,e]azepin-5-yl)-carbonyl]-2-methoxyphenyl]-2,4-dichlorobenzamide]: in the assay on vasopressin V1 (10 mg/kg i.v.), the “MAX % Inhibition” value was 55% and the “Time of max % inhibition” value came out at 90 min. Further, the inhibition at 10 µM in assay [1] worked out at 94%. This molecule gave an IC50 in assay [1] (first part of Table V) of 260 nM.
With `Cc1ccc(F)cc1C(=O)Nc1ccc(C(=O)N2CCc3c[nH]nc3-c3ccccc32)cc1` [Example 584, N-[4-[(4.5-Dihydropyrazolo[4,3-d][1]benzazepin-6(2H)-yl)carbonyl]phenyl]-5-fluoro-2-methylbenzamide], the inhibition at 10 µM in assay [1] was 100%. This molecule also registered a 50% inhibitory concentration (IC50) in assay [1] (second part of Table V) of 170 nM.
For the molecule `Cc1ccccc1C(=O)Nc1c(C)cc(C(=O)N2Cc3ccccc3Cc3ccccc32)cc1C` [Example 258, N-[4-[(6,11-Dihydro-5H-dibenz[b,e]azepin-5-yl)-carbonyl]-2,6-dimethylphenyl]-2-methylbenzamide], in the assay with vasopressin V1 (30 mg/kg i.v.), the “MAX % Inhibition” value is given as 61% and the “Time of max % inhibition” value was determined as 60 min. The same molecule showed an inhibition at 10 µM in assay [1] of 18%.
For `Cc1nc2c(s1)CCN(C(=O)c1ccc(NC(=O)c3cc(F)ccc3C)cc1)c1ccccc1-2` [Example 534], in the assay with vasopressin V2, the Osmolality stood at 695 mOsm/kg and the “Urine Volume” value was determined as 10.6 ml/4 hrs. Moreover, testing at 10 µM in assay [1] gave an inhibition of 86%. This molecule also yielded an IC50 in assay [1] (second part of Table V) of 940 nM.
With `CC(C)COc1ccc([N+](=O)[O-])cc1C(=O)Nc1ccc(C(=O)N2Cc3ccccc3Cc3ccccc32)cc1` [Example 453], in the assay on vasopressin V2, the Osmolality amounted to 776 mOsm/kg and the “Urine Volume” value stood at 9.4 ml/4 hrs. Besides, the IC50 in assay [1] (second part of Table V) came to 3300 nM.
On to `Cc1ccc(F)cc1C(=O)Nc1ccc(C(=O)N2CCc3c[nH]nc3-c3ccccc32)c(Cl)c1` [Example 581], for which the inhibition at 10 µM in assay [1] was found to be 95%. Moreover, the IC50 in assay [1] (second part of Table V) was 475 nM.
For the molecule `Cc1c(F)cccc1C(=O)Nc1ccc(C(=O)N2Cc3ccccc3Cc3ccccc32)cc1Cl` [Example 262, N-[4-[(6,11-Dihydro-5H-dibenz[b,e]azepin-5-yl)-carbonyl]-2-chlorophenyl]-2-methyl-3-fluorobenzamide], in the assay with vasopressin V2, the Osmolality is listed as 899 mOsm/kg and the “Urine Volume” value is listed as 6.8 ml/4 hrs. Moreover, the inhibition at 10 µM in assay [1] stood at 55%. Besides, the IC50 in assay [1] (first part of Table V) came to 6200 nM.

Source of the values: patent US5834461A, “Tricyclic benzazepine vasopressin antagonists” (American Cyanamid Company, priority 1997, dated 1998).
